Measured values from the NIST ThermoML archive (doi:10.1016/j.fluid.2014.04.025).
Numbers after ± are expanded uncertainties.

Columns and labels:
[1] = Liquid; for mass density: 293.15 K, 101.33 kPa, Densimeter; for Normal boiling temperature: Ebulliometric method (Recirculating still)
[2] = refractive index (Na D-line) (dimensionless); conditions: 293.15 K; 101.33 kPa; Liquid; Standard Abbe refractometry

| Structure (SMILES) | mass density [1] [kg/m3] | Normal boiling temperature [1] [°C] | refractive index [2] |
| --- | --- | --- | --- |
| COCCO [2-methoxyethan-1-ol] | 964.74 ± 0.12 | 124.48 ± 0.2 | 1.40234 ± 0.00034 |
| C[S+](C)[O-] [dimethyl sulfoxide] | 1100.36 ± 0.14 | 189.03 ± 0.2 | 1.47987 ± 0.00034 |
| Cc1ccccc1 [toluene] | 867.02 ± 0.11 | 110.58 ± 0.2 | 1.49678 ± 0.00033 |
